US20210299069A1, “PSAMMAPLIN A FOR MODULATING IDO EXPRESSION” (IDOGEN AB, priority 2016, published 2021)

Assays:
[1] = system: colon (HCT15) cancer cell line; details: cited from earlier work
naïve CD4+ CD25− T cells = assay: Conversion of CD4+CD25− T cells into CD4+FoxP3+ Tregs in vitro; format: cell-based
Method: To assess the effect of psammaplin A on the generation of Tregs, naïve CD4+ CD25− T cells were cultured with mitomycin C treated APCs plus IL-2, TGFβ and anti-CD3 in the presence or absence of psammaplin A and numbers of CD4^+ FoxP3^+ Tregs were determined by FACS after 72 h. The RNA was isolated from cell lysate, and reverse transcribed to cDNA for RT-qPCR analysis using Taqman primer probes. Expression of genes encoding Foxp3 was normalized to HPRT expression and was calibrated relative to vehicle group.
The procedure under “Conversion of CD4+CD25− T cells into CD4+FoxP3+ Tregs in vitro” was followed. The frequencies of CD4+FoxP3+ Tregs were determined by FACS after 72 h (FIG. 3A and 3B).

[2] = system: human lung (A549) cancer cell line; details: cited from earlier work
[3] = system: CNS (XF498) cancer cell line; details: cited from earlier work
[4] = system: ovarian (SK-OV-3) cancer cell line; details: cited from earlier work
[5] = system: collagen-induced arthritis mouse model; assay: Treatment of collagen-induced arthritis in vivo; details: DBA/1 mice, 10 mg/kg for 4 days from arthritis onset, scores monitored 10 days, vs vehicle
Method: DBA/1 mice were immunized with bovine type II collagen emulsified in complete Freund's adjuvant. The mice were treated with psammaplin A (10 mg/kg) for 4 days, starting on the day of arthritis onset. Treatment was then stopped. Negative controls received vehicle alone. Clinical scores were monitored for 10 days following onset of arthritis. A clinical scoring system was used as follows. Arthritis severity was scored by an experienced non-blinded investigator as follows: 0=normal, 1=slight swelling and/or erythema, 2=pronounced swelling, 3=ankylosis. All four limbs were scored, giving a maximum possible score of 12 per animal.
The procedure under “Treatment of collagen-induced arthritis in vivo” was followed.
Disease severity was evaluated daily and the mean clinical score of each treatment group was determined. The data points on the graph in FIG. 2 are the mean±SEM of the mice in each treatment.

[6] = system: IDO1 expression in THP-1 cells; assay: Induction of IDO1 in THP-1 cells (RT-qPCR); format: cell-based, human; details: for IDO1 expression (fold change): 96 hours, vs DMSO control
Method: THP-1 cells were harvested from appropriate number of T75 flasks. Cells were counted in a Bürker chamber, stained with 0.4% Trypan Blue. The appropriate number of cells for each experiment were transferred to a new tube and centrifuged at 1200 rpm, 5 min at room temperature (RT). The supernatant was discarded and fresh RPMI with 5% FBS was added to get a cell concentration of 2×10^5 cells/mL. The compound was added to the five separate wells in 6-well plates such that five different final concentrations were obtained after adding the cells. A control was added to one well in the 6-well plate to which cells were added. 1×10^6 cells per well were seeded out to achieve a total volume of 5 mL per well. The cells were incubated at 37° C. in 5% CO2 for 96 hours. After 96 hours the assay was stopped and the cells were lysed for the isolation of RNA.
Total RNA was extracted from THP-1 cells using the RNA RNeasy Mini extraction kit (Qiagen), according to the manufacturer's instructions. A SuperScript® VILO™ RT-kit (Thermo Fisher) was used to reverse transcribe 1 μg of total RNA to cDNA and qPCR was performed. The primers used for amplification of the human IDO1 gene were 5″-[…]-3″ (forward; SEQ ID No. 1) and 5″-[…]-3″ (reverse; SEQ ID No. 2). The primers used for amplification of the endogenous reference gene for human HPRT1 were 5″-[…]-3″ (forward; SEQ ID No. 3) and 5″-[…]-3″ (reverse; SEQ ID No. 4). In brief, RT-qPCR was performed in 20 μl reaction, consisting 10 μl PowerUp SYBR Green Master Mix, 0.5 μM of each primer, 4 μl diluted cDNA for amplification of IDO1 and 1.5 μl diluted cDNA for amplification of HPRT1. An iCycler iQ real-time detection system (Stratagene, Mx3000P, La Jolla, Calif., USA) with the following thermal profile: UDG incubation at 50° C. for 2 min, then denaturation at 95° C. for 5 min, followed by 45 cycles at 94° C. for 15 s, 58° C. for 30 s, and 60° C. for 30 s, was used to perform thermocycling and real-time detection of PCR products. After amplification a melting curve analysis was performed. The RT-qPCR experiments were always run in triplicate. IDO1 was normalised to the geometric means of two HPRT1 reference gene, using the ΔCt method. Within-group comparisons were normalized to one control sample, using the ΔΔCt method.
The procedure under “Induction of IDO1 in THP-1 cells” was followed such that the final concentrations set out in Table 1 were obtained.
Following RNA extraction and quantification of gene expression by RT-qPRC, as described above, induction of IDO1 gene expression using Samples 1 to 6 was investigated.

[7] = target: hepatitis C virus NS3 helicase (Hepatitis C virus genotype 1a, UniProt P27958); details: dose-response relationship, cited from earlier work
Sequence of hepatitis C virus NS3 helicase (P27958 1027-1657): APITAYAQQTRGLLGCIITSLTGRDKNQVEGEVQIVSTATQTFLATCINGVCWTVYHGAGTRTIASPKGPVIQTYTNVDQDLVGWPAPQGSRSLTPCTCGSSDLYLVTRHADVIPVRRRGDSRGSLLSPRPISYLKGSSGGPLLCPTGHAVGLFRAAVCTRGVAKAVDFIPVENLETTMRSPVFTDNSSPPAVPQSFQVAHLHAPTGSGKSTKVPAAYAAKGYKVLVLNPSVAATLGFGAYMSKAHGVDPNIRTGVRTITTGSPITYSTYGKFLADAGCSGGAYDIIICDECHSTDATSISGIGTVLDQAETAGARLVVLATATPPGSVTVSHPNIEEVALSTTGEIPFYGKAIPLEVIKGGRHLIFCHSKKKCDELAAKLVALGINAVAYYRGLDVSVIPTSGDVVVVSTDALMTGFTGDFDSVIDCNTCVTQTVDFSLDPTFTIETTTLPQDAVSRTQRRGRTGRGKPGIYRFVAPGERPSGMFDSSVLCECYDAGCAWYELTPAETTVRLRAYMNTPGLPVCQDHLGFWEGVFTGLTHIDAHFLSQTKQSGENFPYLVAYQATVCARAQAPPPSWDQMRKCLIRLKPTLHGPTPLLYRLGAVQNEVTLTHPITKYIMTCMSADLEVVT

[8] = system: skin (SK-MEL-2) cancer cell line; details: cited from earlier work
[9] = system: methicillin-resistant Staphylococcus aureus (MRSA); details: gram-positive bacteria, in particular MRSA; cited from earlier work

O=C(NCCSSCCNC(=O)/C(Cc1ccc(O)c(Br)c1)=N/O)/C(Cc1ccc(O)c(Br)c1)=N/O [psammaplin A]
cytotoxicity [1]: significant cytotoxicity | frequencies of CD4+FoxP3+ Tregs (FACS) (naïve CD4+ CD25− T cells; co-culture with mitomycin C treated APCs plus IL-2, TGFβ and anti-CD3, 72 h, vs control (nil)): increased in a dose-dependent manner | relative expression of the Foxp3 gene (RT-qPCR) (naïve CD4+ CD25− T cells; normalized to HPRT, relative to vehicle group (nil)): increased in a dose-dependent manner | cytotoxicity [2]: significant cytotoxicity | cytotoxicity [3]: significant cytotoxicity | cytotoxicity [4]: significant cytotoxicity | disease severity (mean clinical score) [5]: successful in reducing disease severity | IDO1 expression (fold change) ([6]; 0.05 micromolar): 0.9 fold change | IDO1 expression (fold change) ([6]; 0.1 micromolar): 0.6 fold change | IDO1 expression (fold change) ([6]; 1 micromolar): 0.9 fold change | IDO1 expression (fold change) ([6]; 3 micromolar): 4.5 fold change | IDO1 expression (fold change) ([6]; 5 micromolar): 20 fold change | increase of IDO1 gene expression (maximum) ([6]; psammaplin A alone, highest level at 5 micromolar): up to 20 fold | NS3 ATPase activity inhibition [7]: inhibits NS3 helicase and ATPase activities | NS3 helicase activity inhibition ([7]; non-competitive): inhibits NS3 helicase | cytotoxicity [8]: significant cytotoxicity | antimicrobial effect [9]: antimicrobial effect
